Key:
[1] = test system: IDH mutant cells; assay: NK cytotoxicity assay (CFSE/7-AAD flow cytometry) on ATRA-treated glioma cells; format: cell-based, human
Experimental: All-trans Retinoic acid (ATRA) treatment of astrocytes and primary glioma cells. ATRA was purchased from Sigma Aldrich® and reconstituted in DMSO. ATRA was added at a 1 μM final concentration to cell culture medium for 48 hours. After treatment, the cells either lysed in Trizol™ for qPCR analysis, or were used in NK cytotoxicity assays.
NK-92 cell culture. For some experiments, NK92 cells were used instead of donor NK cells. NK92 cells (ATCC® CRL-2407™) were obtained from ATCC. […] Fresh medium was added every 2-3 days and once a week, the cells were counted and re-suspended at a final concentration of 5×10^5 cells/mL in fresh medium.
NK cytotoxicity assay. […] After 6 h incubation, the cells were stained with 0.25 μg/ml of 7-AAD and analyzed by flow cytometry.
ATRA induced increased cytotoxic killing of IDH mutant cells in an NKG2D-ligand dependent manner. The ability of ATRA to sensitize IDH mutant cells to killing by NK cells was evaluated. For this purpose, IDH mutant and WT cells were treated with 1 μM ATRA for 48 hours and assessed for killing by NK-92 cells (ATCC) at a 10:1 E:T ratio. […] ATRA-treated cells were also evaluated for expression of NKG2D ligands.

[2] = test system: IDH mutant gliomas; assay: Survival in RCAS tva immunocompetent glioma mouse model; format: in vivo, mice
Experimental: Immunocompetent mouse model. The RCAS/tva system was used to ectopically express muIDH1 (R132H) in PDGF-driven gliomas. RCAS retroviral vectors were used to transfer genes to specific cell types in vivo that express the receptor tva to develop a pair of isogenic mouse tumor models that differ only in IDH1 mutation status. Three RCAS vectors expressing PDGF, wtIDH1-shp53, or muIDH1 (R132H)-shp53 were constructed and used in three different Ntva mouse strains. Mice were injected with RCAS-PDGF-producing DF1 cells together with either DF1 cells producing RCAS-wtIDH1-shp53 (wtIDH1) or RCAS-mutantIDH1-shp53 (muIDH1). Tumors were generated from these injections with identical genomic backgrounds, with the initiating events differing only in IDH1 mutation status.

[3] = test system: IDH mutant tumors; assay: NK depletion (anti-NK1.1) experiment in tumor-bearing C57BL6/J nude mice; format: in vivo
Experimental: Mice. […] DMSO-treated mice were used as controls.
Anti-tumor effects of ATRA in vivo is dependent upon NK activity in vivo. Contrary to the delayed pro-differentiation effect of ATRA in vitro (FIG. 13A through 13D), the anti-tumor effects in vivo were more immediate. Thus, it was hypothesized that ATRA exercises alternate pathways to curb tumor growth. […] To further substantiate the role of NKs in anti-tumor effect of ATRA, a NK blocking experiment was performed in vivo. Briefly, IDH mutant or WT tumor-bearing C57BL6/J nude mice were injected with […] anti-NK1.1 (or control isotype) antibody intra-peritoneally on the first day of ATRA treatment. ATRA treatment was started when tumors were about 25 mm^2 in size and administered every other day.

[4] = test system: CCL2 and CXCL12 in IDH mutant cells; assay: Chemokine array on culture supernatants; format: cell-based, human
Experimental: ATRA increases chemotaxis towards IDH mutant cells in a CCL2-dependent manner. […] To confirm these findings, chemotaxis assays were performed in vitro. ATRA-treated IDH mutant or WT cells were plated in the bottom well of a transwell. Different immune cell subsets (as indicated) were placed in the top chamber at a 10:1 E:T ratio. After 48 hours, cells from the bottom chamber were harvested and analyzed by flow cytometry. […] To evaluate the mechanisms of changes in chemotaxis induced by ATRA, a chemokine array was performed. Supernatants from ATRA- (or DMSO)-treated WT and IDH mutant cultures were used to assess changes in chemokine expression using a chemokine array kit (R&D systems). Results were interpreted visually as well as quantified using an imaging software (ImageJ). […] To substantiate the role of CCL2 in NK and T cell chemotaxis, transwell assays were repeated as described earlier, in the presence of CCL2-blocking antibody (R&D systems).

[5] = test system: IDH mutant primary glioma neurospheres; assay: Differentiation of primary glioma neurospheres; format: cell-based, human; conditions: for morphological changes: 1 μM ATRA
Experimental: Glioma cell culture. Resected tumors from Glioma patients (both IDH wt and mutant) were mechanically dissociated to form a single cell suspension. Contaminating RBCs were removed using an RBC lysis buffer (eBioscience) and cells were propagated into neural stem cells in Neurocult™ NS-A proliferation kit supplemented with 20 ng/mL Human Recombinant EGF, 10 ng/mL Human Recombinant bFGF) and 2 μg/mL Heparin Solution (Stemcell Technologies Canada Inc.). After 3 weeks in culture, neurospheres were moved to Complete Medium (CM) in order to propagate differentiation into adherent cell lines.
All-trans retinoic acid (ATRA) is a differentiating agent for multiple types of cancers, including IDH mutant acute myeloid leukemia (AML). Therefore, efficacy of ATRA as a differentiating agent in IDH mutant gliomas was evaluated. IDH mutant or WT primary glioma neurospheres were treated with 1 μM ATRA for 2, 7 or 14 days. At each time point, cells were evaluated for morphological changes and changes in their molecular profile. Vehicle (DMSO)-treated cells served as controls, while cells treated with 10% FBS served as differentiation (positive) controls.

[6] = test system: diffuse IDH mutant glioma; assay: ATRA therapy in a human patient, MRI before and after; format: in vivo; conditions: 40 mg/m2 ATRA, 21 days on, 7 days off, three months
Experimental: A patient with diffuse IDH mutant glioma was treated with 40 mg/m2 ATRA on a treatment cycle of 21 days on, 7 days off. MRI images of the patient's brain were performed before (FIG. 12A) and after (FIG. 12B) ATRA treatment.

CC1=C(/C=C/C(C)=C/C=C/C(C)=C/C(=O)O)C(C)(C)CCC1 [ATRA, all-trans retinoic acid]
killing by NK cells incubated with NKG2D blocking antibody ([1]; ATRA-treated IDH mutant cells): failed to recognize and kill ATRA-treated IDH mutant cells, reducing killing to baseline levels | killing by NK-92 cells ([1]; IDH mutant cells, 1 μM ATRA 48 hours, 10:1 E:T ratio, vs DMSO-treated controls): significantly more susceptible to killing by NK-92 cells | infiltration of NK cells in the tumor (immunohistochemistry) ([2]; ATRA-treated mice): increased infiltration of NK cells in the tumor | survival ([2]; mice bearing IDH mutant tumors, ATRA every alternate day for 21 days, vs vehicle-treated/IDH wild type): significantly longer survival | levels of NKs in TILs by flow cytometry ([3]; ATRA-treated mice vs DMSO-treated controls): higher levels of NKs | tumor growth ([3]; IDH mutant tumor-bearing C57BL6/J nude mice, ATRA every other day, vs DMSO-treated controls): significantly slower tumor growth | tumor growth after depletion of NKs (anti-NK1.1) ([3]; IDH mutant tumor-bearing mice treated with ATRA): depletion of NKs abrogated the anti-tumor effects of ATRA | levels of CXCL12 ([4]; ATRA-treated IDH mutant cells vs DMSO-treated controls): lower levels of CXCL12 | CCL2 production ([4]; supernatants of ATRA- or DMSO-treated WT and IDH mutant cultures): CCL2 production was only observed in ATRA treated IDH mutant cells | morphological changes ([5]; 14 days): induced morphological changes in IDH mutant primary glioma neurospheres, but not WT neurospeheres | morphological changes ([5]; earlier time points): Minimal morphological changes | time of ATRA treatment after which differentiation occurred ([5]; IDH mutant glioma stem cells): > 10 days | levels of stem cell markers Sox2, CD133 and Nestin ([5]; IDH mutant neurospheres, ATRA 14 days, PCR (Nestin also flow cytometry)): significantly lower levels | levels of GFAP, astrocytic differentiation marker ([5]; IDH mutant neurospheres, ATRA 14 days, PCR and flow cytometry): increased levels of GFAP | glioma tumor on MRI [6]: reduction in the size and severity of the glioma tumor
